Data published in publication PMC3818835, “What Goes around Comes around-A Comparative Study of the Influence of Chemical Modifications on the Antimicrobial Properties of Small Cyclic Peptides” (Pharmaceuticals, 2013).
≈ marks a conversion by molar mass, not a printed value. Numbered stars: 1 amine (or outer) side, 2 acyl side, 3 side chain; on linkers, the order of the positions; unused ones are H or OH. Square brackets hold non-standard residues; d marks the D form. Peptide text beside a SMILES is read from it. * marks the point of attachment. X1 = COc1ccc2c(CC(N[*:1])C(=O)[*:2])cc(=O)oc2c1; NBD = O=[N+]([O-])c1ccc(*)c2nonc12; X2 = O=c1cc(C*)c2cc(Br)c(O)cc2o1; Dap = NC[C@H](N)C(=O)O

Tests used:
human erythrocytes = format: cell-based; conditions: pH 7.4
Procedure: The lytic effect of selected peptides upon human erythrocytes was determined as described before. Briefly, cells were washed thoroughly in Tris buffer (10 mM Tris, 150 mM NaCl, pH 7.4). Suspensions with 2.5 × 10^8 cells/mL were incubated with peptides at a final concentration of 100 µM for 30 min at 37 °C. After centrifugation, 0.6% NH4OH was added to an aliquot of the supernatant and hemoglobin absorption (A) was measured at 540 nm (Jasco V-550). Whole cell suspensions exposed to NH4OH were used as positive control (A100%) and preparations without peptide served as negative control (A0%), respectively. Data were collected in three independent experiments.

B. subtilis DSM 347 [1] = format: cell-based; conditions: DSM 347, 18 h
Procedure: (§1) The minimal inhibitory concentration (MIC) of the cyclic hexapeptides was tested against Gram-negative E. coli DH5α and Gram-positive B. subtilis DSM 347 using a microdilution technique in 96 well microtiter plates as described previously. Briefly, cells from an overnight culture were inoculated 1:100 in LB medium, grown to mid log phase (OD600 0.4 ± 0.1) and adjusted to 5 × 10^5 cells/well. Final peptide concentrations ranged from 0.05 µM to 100 µM (2-fold dilutions) and were tested in triplicates in at least three independent experiments. The MIC was determined after 18 h of incubation at 37 °C, 180 rpm being the lowest peptide concentration at which no visible bacterial growth can be detected photometrically (A600, Safire Microplate Reader, Tecan, Männedorf, Germany).

E. coli DH5α [2] = format: cell-based; conditions: 18 h
Procedure: as §1

[3] = Hydrophobicity: retention time tR by reversed phase HPLC; format: physicochemical; conditions: chromatographic, RP-HPLC ProntoSil 300-5-C18-H (250 × 4.6 mm, 5 µm); peptide 1 mg/mL in phase A (0.1% TFA in water); B 0.1% TFA in 80% acetonitrile; linear gradient 5%–95% B over 40 min at 22 °C; used as a measure of hydrophobicity
Procedure: The retention time tR of the cyclic hexapeptides was determined by HPLC on a Jasco LC-2000Plus using a ProntoSil 300-5-C18-H column (250 × 4.6 mm, 5 µm) (Bischoff Chromatography). Peptide concentration was 1 mg/mL in mobile phase A (0.1% TFA in deionized water), mobile phase B consisted of 0.1% TFA in 80% acetonitrile in deionized water. For chromatographic analyses a linear gradient of 5%–95% phase B over 40 min at 22 °C was applied.
To investigate the influence of fluorescent label modification and amino acid substitution on the hydrophobicity/amphipathicity of the cyclic hexapeptide derivatives, we determined the retention time tR by reversed phase HPLC (Figure 2). The method monitors the retention of compounds by the hydrophobic HPLC stationary phase. Differences in tR reflect differences in the effective hydrophobicity of the molecule which is related to the intrinsic hydrophobicity of the individual residues and their ability to form hydrophobic domains for interaction with the HPLC matrix. At the same time, hydrophilic residues will locate at the opposite side of the molecule. Reduction in the size or positioning of cationic residues next to the hydrophobic molecular surface area would reduce amphipathicity. tR-measurements have successfully been applied to characterize amphipathic helices, β-structured peptides and different sets of our small cyclic R-, W-rich peptides.

E. coli DH5α [4] = assay: Propidium iodide influx (membrane permeabilisation), flow cytometry; format: cell-based; conditions: FACS, PI 10 µg/mL, peptide at respective MIC, LB, 5 × 10^5 cells/mL, 0-90 min at 37 °C
Procedure: (§2) Membrane permeabilisation was determined by fluorescence activated cell sorting (FACS) on a FACSCalibur (Becton Dickinson) equipped with a 488 nm argon laser. Propidium iodide (PI, 10 µg/mL) and peptides at a final concentration corresponding to the respective MIC were dissolved in LB. Cells were grown to mid log phase (OD600 0.4 ± 0.1) and added to the solution just before the measurement at a concentration of 5 × 10^5 cells/mL. Cells were sorted on the basis of PI fluorescence which increases upon intercalation with DNA. This can only be observed in the case of disturbed membrane integrity as PI cannot translocate across intact lipid bilayers. Cell fluorescence was measured after incubation time points of 0, 5, 10, 15, 20, 30, 60 and 90 min at 37 °C, 180 rpm. A minimum of 20,000 cells was recorded for each preparation. CellQuest^TM Pro software (Becton Dickinson) was used for data acquisition and results were analyzed with FCS Express V3 (De Novo Software, Los Angeles, CA, USA).

eukaryotic cells = test system: eukaryotic cells; set-up: method as in PMID 15248771; conditions: cited from earlier work
B. subtilis DSM 347 [5] = assay: Propidium iodide influx (membrane permeabilisation), flow cytometry; format: cell-based; conditions: FACS, PI 10 µg/mL, peptide at respective MIC, LB, 5 × 10^5 cells/mL, 0-90 min at 37 °C
Procedure: as §2

B. subtilis DSM 347 [6] = conditions: 5 µM, PI influx; cited from earlier work
Procedure: (§3) Figure 4 Bacterial membrane permeabilisation determined with flow cytometry using propidium iodide (PI). PI influx after incubation with cWFW, fluorescent-labeled and K-substituted cyclic hexapeptides was tested into B. subtilis DSM 347 (A,C) and E. coli DH5α (B,D) at respective MICs. […] Preparations without peptide were used as negative co ...

E. coli DH5α [7] = conditions: 5 µM, PI influx; cited from earlier work
Procedure: as §3

Row | Molecule | Hemolysis at 100 µM (human erythrocytes) [%] | MIC B. subtilis DSM 347 (B. subtilis DSM 347 [1]) [µM] | MIC E. coli DH5α (E. coli DH5α [2]) [µM] | Retention Time tR [3] [min] | PI influx / membrane permeabilisation, E. coli (E. coli DH5α [4]) | Toxicity towards eukaryotic cells (eukaryotic cells) | PI influx / membrane permeabilisation, B. subtilis (B. subtilis DSM 347 [5]) | Membrane permeabilising potential, Gram-positive cells (positive control) (B. subtilis DSM 347 [6]) | Membrane permeabilising potential, Gram-negative cells (positive control) (E. coli DH5α [7])
1 | COc1ccc2c(CC3NC(=O)[C@H](Cc4c[nH]c5ccccc45)NC(=O)[C@H](CCCCN)NC(=O)[C@H](CCCNC(=N)N)NC(=O)[C@H](CCCCN)NC(=O)[C@H](Cc4c[nH]c5ccccc45)NC3=O)cc(=O)oc2c1 (stereo partly shown) [cR2[Cu]] (cyclo(KRKW[X1]W)) | 4 | 6 (≈ 6.18 µg/mL) | 50 (≈ 51.5 µg/mL) | 17.20 | pronounced membrane disruption |  |  |  | 
2 | N=C(N)NCCC[C@@H]1NC(=O)[C@H](CCCCN)NC(=O)[C@H](Cc2c[nH]c3ccccc23)NC(=O)[C@H](CNc2ccc([N+](=O)[O-])c3nonc23)NC(=O)[C@H](Cc2c[nH]c3ccccc23)NC(=O)[C@H](CCCCN)NC1=O [cR2[NBD]] (cyclo(KRKW[Dap](NBD)W)) | 26 | 12 (≈ 12.4 µg/mL) | 50 (≈ 51.7 µg/mL) | 17.47 | No E. coli membrane permeabilisation could be detected |  |  |  | 
3 | N=C(N)NCCC[C@@H]1NC(=O)[C@H](CCCNC(=N)N)NC(=O)[C@H](Cc2c[nH]c3ccccc23)NC(=O)[C@H](Cc2ccccc2)NC(=O)[C@H](Cc2c[nH]c3ccccc23)NC(=O)[C@H](CCCNC(=N)N)NC1=O [cWFW] (cyclo(FWRRRW); ring closure inferred) | 4 | 3 (≈ 2.96 µg/mL) | 3 (≈ 2.96 µg/mL) | 17.67 |  | no toxicity towards eukaryotic cells could be detected |  |  | 
4 | COc1ccc2c(CC3NC(=O)[C@H](Cc4c[nH]c5ccccc45)NC(=O)[C@H](CCCNC(=N)N)NC(=O)[C@H](CCCNC(=N)N)NC(=O)[C@H](CCCNC(=N)N)NC(=O)[C@H](Cc4c[nH]c5ccccc45)NC3=O)cc(=O)oc2c1 (stereo partly shown) [cW[Cu]W] (cyclo(RRRW[X1]W)) | 23 | 6 (≈ 6.52 µg/mL) | 25 (≈ 27.2 µg/mL) | 18.40 | pronounced membrane disruption |  | slightly higher |  | 
5 | N=C(N)NCCC[C@@H]1NC(=O)[C@H](CCCNC(=N)N)NC(=O)[C@H](Cc2c[nH]c3ccccc23)NC(=O)[C@H](CNc2ccc([N+](=O)[O-])c3nonc23)NC(=O)[C@H](Cc2c[nH]c3ccccc23)NC(=O)[C@H](CCCNC(=N)N)NC1=O [cW[NBD]W] (cyclo(RRRW[Dap](NBD)W)) | 76 | 25 (≈ 27.3 µg/mL) | 50 (≈ 54.5 µg/mL) | 17.90 | pronounced membrane disruption |  |  |  | 
6 | N=C(N)NCCC[C@@H]1NC(=O)[C@H](CCCNC(=N)N)NC(=O)[C@H](Cc2c[nH]c3ccccc23)NC(=O)[C@H](CSCc2cc(=O)oc3cc(O)c(Br)cc23)NC(=O)[C@H](Cc2c[nH]c3ccccc23)NC(=O)[C@H](CCCNC(=N)N)NC1=O [cW[S-Cu]W] (cyclo(RRRWC(X2)W)) | 76 | 6 (≈ 7.18 µg/mL) | 25 (≈ 29.9 µg/mL) | 18.91 | pronounced membrane disruption |  | slightly higher |  | 
7 | KLALKLALKALKAALKLA-NH2 [KLA-1, helical model peptide …-NH2, positive control in Gram-positive cells] |  |  |  |  |  |  |  | high membrane permeabilising potential | 
8 | polymyxin B |  |  |  |  |  |  |  |  | high membrane permeabilising potential
